Assay results as given in US7138543B2, “Thiolalkyl benzoic acid derivatives” (Guilford Pharmaceuticals Inc., priority 2001, dated 2006).

test system: STZ diabetic rats; assay: Reversal of diabetic neuropathy in STZ model, delayed dosing: nerve conduction velocity; assay type: in vivo; details: daily p.o., within 8 weeks of dosing, persisted through 12 weeks, FIG. 23
Experimental: (§1) In vivo Assay of NAALADase Inhibitors—Reversal of Diabetic Neuropathy in STZ Model
(§2) General Method for STZ Model—Delayed Dosing
(§3) Rats (200–225 grams) were injected with STZ (70 mg/kg) into the tail vein. Diabetes (>350 mg/dl) was confirmed in all rats, 4 weeks after STZ administration. Rats were left untreated until 35–49 days after STZ. Compound D (1, 3, or 10 mg/kg), Compound E (10 mg/kg), or vehicle were dosed daily p.o. following confirmation of hyperalgesia and/or nerve conduction velocity deficits. In separate experiments, onset of treatment was delayed until 60 to 90 days after STZ administration. Nerve conduction velocity or withdrawal response to thermal stimulation of hind paws was measured at intervals, usually bi-weekly for thermal response and monthly for nerve conduction velocity.
Nerve Conduction Velocity Measurements
Sensory and motor nerve conduction velocities were evaluated using the method of De Koning and Gispen (Peptides 8: 415–422, 1987). Electrophysiological evaluation was carried out within one hour of dosing. Animals were anesthetized with isoflurane and stimulating needle electrodes were inserted close to the sciatic nerve at the sciatic notch and the tibial nerve near the ankle. Recording electrodes were placed over the foot muscles. Stimuli were applied and responses recorded. Motor and sensory nerve conduction velocities were calculated by measuring the distance between the sciatic notch and ankle sites, and the latency between the M-wave and the H-reflex.

Structure (SMILES) | motor nerve conduction velocity
O=C(O)c1cccc(CC(CCCS)C(=O)O)c1 (stereo not drawn) [Compound E, 3-Carboxy-alpha-(3-mercaptopropyl)-benzenepropanoic acid] | reversed the motor nerve conduction velocity towards normal

test system: STZ diabetic rats; assay: Reversal of diabetic neuropathy in STZ model, delayed dosing: thermal hyperalgesia; assay type: in vivo; details: daily p.o., treatment from 5 weeks post STZ, within two weeks of treatment, FIG. 22
Experimental: as §1, §2, §3
Animals were acclimated to the apparatus for at least 5 min. An infra-red source was placed under below the plantar surface of the rat hind-paw. The intensity of the source was adjusted so that latency for normal rats was about 10 secs. Animals were tested for thermal response latency according to the method of Hargreaves et al (Pain 77–88, 1988). Each animal was tested 8 times (4 each hind limb) and the latency of response recorded automatically to nearest 0.1 sec. An average of the last 4 measurements for each paw was calculated (8 total measurements) and noted for each rat.

Structure (SMILES) | neuropathic hyperalgesia (thermal response latency)
O=C(O)c1cccc(CC(CCCS)C(=O)O)c1 (stereo not drawn) [Compound E, 3-Carboxy-alpha-(3-mercaptopropyl)-benzenepropanoic acid] | reversed towards normal

target: T1, NAALADase (Homo sapiens, UniProt Q04609); assay: In vitro inhibition of NAALADase activity; assay type: biochemical; details: unit inferred
T1 construct: from tissue; host or cells: unspecified tissue
T1 sequence (Q04609 whole entry): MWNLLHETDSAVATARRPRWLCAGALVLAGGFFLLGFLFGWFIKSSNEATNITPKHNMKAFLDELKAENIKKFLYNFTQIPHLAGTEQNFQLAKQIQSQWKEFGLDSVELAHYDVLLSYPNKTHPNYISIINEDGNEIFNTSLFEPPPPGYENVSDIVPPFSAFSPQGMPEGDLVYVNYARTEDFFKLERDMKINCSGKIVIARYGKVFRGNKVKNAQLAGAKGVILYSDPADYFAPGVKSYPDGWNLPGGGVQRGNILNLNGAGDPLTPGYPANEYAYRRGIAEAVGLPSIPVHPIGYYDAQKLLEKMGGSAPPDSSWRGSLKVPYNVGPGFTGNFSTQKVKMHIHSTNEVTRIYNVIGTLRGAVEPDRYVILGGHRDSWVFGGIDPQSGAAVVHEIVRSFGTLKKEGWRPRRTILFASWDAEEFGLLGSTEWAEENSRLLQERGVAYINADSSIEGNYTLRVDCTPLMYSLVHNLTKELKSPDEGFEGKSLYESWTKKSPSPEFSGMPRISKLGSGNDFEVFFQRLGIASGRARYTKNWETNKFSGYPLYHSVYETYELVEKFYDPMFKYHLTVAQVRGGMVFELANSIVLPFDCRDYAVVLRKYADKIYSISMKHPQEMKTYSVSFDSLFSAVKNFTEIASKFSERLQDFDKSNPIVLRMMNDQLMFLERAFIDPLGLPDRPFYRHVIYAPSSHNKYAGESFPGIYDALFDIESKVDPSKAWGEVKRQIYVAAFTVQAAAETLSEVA
Experimental: In vitro Inhibition of NAALADase Activity
Protocol for Assaying in vitro Inhibition of NAALADase Activity
The following were combined in assay tubes: 100 μL of 10 mM CoCl2, 250 μL of 200 mM Tris chloride, 100 μL tissue, 100 μL of 10 mM NAALADase inhibitor in Bakers H2O, and Bakers H2O to make a total volume of 950 μL. Each assay tube was then incubated for 10 minutes in a 37° C. water bath. […] The assay was stopped by adding 1.0 ml of 0.1 M sodium phosphate.
Glutamate released by the action of the NAALADase enzyme was separated from the assay solution using an anion exchange resin. The resin was equilibrated to 25° C., 2.0 ml of the resin was added to a Pasteur pipette pre-loaded with a single glass bead, and each column was washed twice with distilled H2O. A column was placed over a scintillation vial and 200 μL of an assay sample was loaded onto the column. After draining, glutamate was eluted using two 1.0 ml washes of 1 M formic acid. After addition of 10 ml of scintillation cocktail, each sample was counted for 2 minutes on a scintillation counter.

Structure (SMILES) | IC50 [µM]
O=C(O)c1c(CCS)cccc1OC(c1ccccc1)c1ccccc1 [Compound 45, 2-benzhydryloxy-6-(2-mercapto-ethyl)-benzoic acid] | 35.2
O=C(O)Cc1cccc(CCS)c1C(=O)O [Compound 48, 2-carboxymethyl-6-(2-mercapto-ethyl)-benzoic acid] | 0.043
COc1cccc(CCS)c1C(=O)O [Compound 44, 2-(2-mercapto-ethyl)-6-methoxy-benzoicacid] | 0.954
O=C(O)c1ccccc1CS [Compound 31, 2-(mercaptomethyl)-benzoic acid] | 100
O=C(O)c1c(CCS)cccc1-c1ccccc1 [Compound 47, 3-(2-mercapto-ethyl)-biphenyl-2-carboxylic acid] | 75.4
O=C(O)c1c(CCS)cccc1OCc1ccccc1-c1ccccc1 [Compound 33, 2-(biphenyl-2-ylmethoxy)-6-(2-mercaptoethyl)-benzoic acid] | 0.095
O=C(O)c1cccc(-c2ccc(CS)cc2C(=O)O)c1 [Compound 26, 4-(mercaptomethyl)-[1,1′-biphenyl]-2,3′-dicarboxylic acid] | 0.0243

More lines, now with the values ahead:

IC50 [µM] | Structure (SMILES)
0.04 | COc1ccc(C(=O)O)c(COc2cccc(CCS)c2C(=O)O)c1 [Compound 39, 2-[(2-carboxy-5-methoxyphenyl)methoxy]-6-(2-mercaptoethyl)-benzoicacid]
1.25 | O=C(O)c1c(CCS)cccc1OCc1ccc(Br)cc1 [Compound 41, 2-(4-bromo-benzyloxy)-6-(2-mercapto-ethyl)-benzoic acid]
12.2 | O=C(O)c1c(CCS)cccc1OCc1cccc(Cl)c1 [Compound 46, 2-(3-chloro-benzyloxy)-6-(2-mercapto-ethyl)-benzoic acid]
0.0009 | O=C(O)c1cc(Br)cc(COc2cccc(CCS)c2C(=O)O)c1 [Compound 34, 2-[(3-bromo-5-carboxyphenyl)methoxy]-6-(2-mercaptoethyl)-benzoic acid]
0.001 | O=C(O)c1cccc(COc2cccc(CCS)c2C(=O)O)c1 [Compound 40, 2-(3-carboxy-benzyloxy)-6-(2-mercapto-ethyl)-benzoic acid]
0.0898 | O=C(O)c1c(CCS)cccc1OCc1ccccc1 [Compound 7, 2-(2-mercaptoethyl)-6-(phenylmethoxy)-benzoic acid]
0.07 | Cc1ccc(COc2cccc(CCS)c2C(=O)O)cc1 [Compound 37, 2-(2-mercaptoethyl)-6-[(4-methylphenyl)methoxy]-benzoic acid]
0.018 | O=C(O)c1ccc(COc2cccc(CCS)c2C(=O)O)cc1Br [Compound 20, 2-[(3-bromo-4-carboxyphenyl)methoxy]-6-(2-mercaptoethyl)-benzoic acid]
0.025 | O=C(O)c1c(CCS)cccc1OCc1ccc(Cl)cc1 [Compound 32, 2-[(4-chlorophenyl)methoxy]-6-(2-mercaptoethyl)-benzoic acid]
0.104 | O=C(O)c1c(CCS)cccc1OCc1cccc(Br)c1 [Compound 43, 2-(3-bromo-benzyloxy)-6-(2-mercapto-ethyl)-benzoic acid]
0.3 | CC(C)(C)c1ccc(COc2cccc(CCS)c2C(=O)O)cc1 [Compound 42, 2-(4-tert-butyl-benzyloxy)-6-(2-mercapto-ethyl)-benzoic acid]
0.0008 | O=C(O)c1cc(COc2cccc(CCS)c2C(=O)O)ccc1Br [Compound 38, 2-[(4-bromo-3-carboxyphenyl)methoxy]-6-(2-mercaptoethyl)-benzoic acid]
0.0012 | O=C(O)c1ccc(Br)c(COc2cccc(CCS)c2C(=O)O)c1 [Compound 35, 2-[(2-bromo-5-carboxyphenyl)methoxy]-6-(2-mercaptoethyl)-benzoic acid]
0.0288 | O=C(O)c1ccc(COc2cccc(CCS)c2C(=O)O)cc1 [Compound 9, 2-[(4-carboxyphenyl)methoxy]-6-(2-mercaptoethyl)-benzoic acid]
0.1 | COc1ccc(COc2cccc(CCS)c2C(=O)O)cc1 [Compound 36, 2-(2-mercaptoethyl)-6-[(4-methoxyphenyl)methoxy]-benzoic acid]

test system: chronic constrictive injury-induced rats; assay: Neuropathic pain in CCI model (sciatic nerve ligation); assay type: in vivo; details: 0.1 mg/kg for 18 days after sciatic nerve ligation, FIG. 14
Experimental: In vivo Assay of NAALADase Inhibitors on Neuropathic Pain in CCI Model
Sciatic nerve ligation, consisting of 4 ligatures tied loosely around the sciatic nerve at 1 mm intervals proximal to the nerve trifurcation, was performed on rats. […] The rats were habituated to a Hargreaves apparatus. An infrared heat source was directed onto the dorsal surface of each rat's hindpaws and the time taken for the rat to withdraw its paws was noted. The difference in scores between the latency of the response for the paw on the operated side versus the paw on the unoperated control side was determined.

Structure (SMILES) | withdrawal latency difference scores between operated and unoperated paws
O=C(O)c1cccc(-c2cccc(CCS)c2C(=O)O)c1 [Compound 10, 3-(2-mercaptoethyl)-[1,1′-biphenyl]-2,3′-dicarboxylic acid] | normalized the difference in scores

same assay, conditions: 10, 1 or 0.1 mg/kg for 15 days after sciatic nerve ligation, FIG. 13

Structure (SMILES) | withdrawal latency difference scores between operated and unoperated paws
O=C(O)c1ccc(COc2cccc(CCS)c2C(=O)O)cc1 [Compound 9, 2-[(4-carboxyphenyl)methoxy]-6-(2-mercaptoethyl)-benzoic acid] | normalized the difference in scores

test system: cortical cell cultures; assay: In vitro assay on ischemia (potassium cyanide and 2-deoxyglucose insult); assay type: cell-based; details: concentration required to cause a 50% reduction in glutamate toxicity following an ischemic insult; unit inferred
Experimental: In vitro Assay on Ischemia
To examine the in vitro effect of the compounds of the invention on ischemia, cortical cell cultures were treated with various compounds of the invention during an ischemic insult utilizing potassium cyanide and 2-deoxyglucose, and for one hour thereafter. For a description of the experimental method used, see Vornov et al., J. Neurochem., Vol. 65, No. 4, pp. 1681–1691 (1995).

Structure (SMILES) | EC50 [µM]
O=C(O)c1cccc(COc2ccc(CCS)c(C(=O)O)c2)c1 [Compound 6, 5-[(3-carboxyphenyl)methoxy]-2-(2-mercaptoethyl)-benzoic acid] | 0.084
O=C(O)c1cc(CS)ccc1Br [Compound 25, 2-bromo-5-(mercaptomethyl)-benzoic acid] | 2
O=C(O)c1ccccc1CCS [Compound 1, 2-(2-mercaptoethyl)-benzoic acid] | 0.846
O=C(O)c1cccc(CCS)c1 [Compound 29, 3-(2-mercaptoethyl)-benzoic acid] | 2.4
O=C(O)c1c(CCS)cccc1OCc1ccccc1 [Compound 7, 2-(2-mercaptoethyl)-6-(phenylmethoxy)-benzoic acid] | 0.096
O=C(O)c1ccc(COc2ccc(CCS)c(C(=O)O)c2)cc1 [Compound 3, 5-[(4-carboxyphenyl)methoxy]-2-(2-mercaptoethyl)-benzoic acid] | 10
O=C(O)c1cc(CS)ccc1OCc1ccccc1 [Compound 27, 5-(mercaptomethyl)-2-(phenylmethoxy)-benzoic acid] | 0.728
O=C(O)c1ccccc1COc1cccc(CCS)c1C(=O)O [Compound 8, 2-[(2-carboxyphenyl)methoxy]-6-(2-mercaptoethyl)-benzoic acid] | 0.029
O=C(O)c1cccc(CS)c1 [Compound 30, 3-(mercaptomethyl)-benzoic acid] | 0.619
O=C(O)c1cc(OCc2ccccc2)ccc1CCS [Compound 4, 2-(2-mercaptoethyl)-5-(phenylmethoxy)-benzoic acid,] | 9.6
O=C(O)c1ccc(COc2cccc(CCS)c2C(=O)O)cc1 [Compound 9, 2-[(4-carboxyphenyl)methoxy]-6-(2-mercaptoethyl)-benzoic acid] | 0.019
O=C(O)c1cccc(-c2ccc(CS)cc2C(=O)O)c1 [Compound 26, 4-(mercaptomethyl)-[1,1′-biphenyl]-2,3′-dicarboxylic acid] | 0.151
